Data published in US20250340846A1, “PATIENT-DERIVED CELL-CONTAINING DROPLETS ENABLE CLINICAL PRECISION ONCOLOGY” (Xilis, Inc., priority 2022, published 2025).

Tests used:
[1] = test system: MOS from metastatic rectal cancer biopsy; experiment: High-throughput drug screen on patient-derived MOS, CellTiter-Glo viability; type: cell-based, human; details: 1 μM, 72 hours, 30 tumor cells per MOS
Experimental: (§1) Drug High-Throughput Screening: Automated liquid handling was provided by the Echo Acoustic Dispenser (Labcyte) for drug administration or Well mate (Thermo Fisher) for cell plating, and assays were performed using a Clariosean plate reader (BMG Labtech). Immediately prior to cell plating, 384 well plates were stamped with 119 FDA-approved drug compounds at a final concentration of 1 μM. The compound library (Approved Oncology Set VI) was provided by the NCI Developmental Therapeutics Program (https://dtp.cancer.gov/). MOS were plated in these drug pre-coated plates at 100 MOS/well with each MOS containing 30 cells/droplet. Cell viabilities were assessed via CellTiter-Glo Luminescent Cell Viability Assay (Promega, USA) 72 hours after cell plating. Percent cytotoxicity was quantified using the following formula: 100*[1-(average CellTiterGlo^drug/average CellTiterGlo^control)].
Since clinical treatment decisions are often made within 10-14 days of diagnosis, an ideal diagnostic assay would give results within 14 days and use minimal tissue (e.g., core biopsies) to predict clinical outcome. In an initial study, a biopsy was obtained from a patient presenting with metastatic rectal cancer, and MOS (30 tumor cells per MOS) were established within 8 days of biopsy. […]

metastatic CRC = experiment: Clinical outcome of patients on oxaliplatin-based therapy (CT scan, time on treatment); type: in vivo, human
Text: All eight patients received oxaliplatin-based therapy per usual treatment guidelines. Patient outcomes were subsequently evaluated by CT scan before and after oxaliplatin treatment (FIGS. 2B-2H), and time-on-treatment was compared to MOS oxaliplatin sensitivity.

[2] = test system: CRC MOS lines resistant to oxaliplatin; experiment: Caspase 3/7 fluorescence imaging of oxaliplatin-treated CRC MOS; type: cell-based, human; details: two oxaliplatin-resistant CRC MOS lines (CRC1282, CRC1297), 20 cells per MOS
Experimental: Cell death for each MOS was measured by imaging the Caspase 3/7 fluorescence signal and normalizing it by the cell surface area inside each MOS.

[3] = test system: metastatic CRC patient-derived MOS; experiment: Oxaliplatin drug testing of MOS from CRC core biopsies (Cell Titer Glo); type: cell-based, human; details: 1 μM and 10 μM, cut-off 50% killing
Experimental: as §1
A prospective clinical study was then designed and conducted. Core biopsies (18-gauge) were obtained from seven additional patients presenting with metastatic CRC, MOS were generated, and drug testing was performed (FIGS. 1H and 1I). MOS (30 tumor cells per MOS) were generated and responses to oxaliplatin were tested within 13 days (9.9 days on average) from time of biopsy for all eight biopsy samples, with a success rate of 100% (8/8) (TABLE 2). Given the limited tissue volume, dosages of 1 μM and 10 μM were selected based on studies disclosed elsewhere (Vlachogiannis et al., Science 359, 920-926, 2018, Ooft et al., Science Translational Med 11, 2019; Ganesh et al., Nat Med 25, 1607-1614, 2019; and Yao et al., Trends Immunol 41, 652-664, 2020). The same cut-off as measured via Cell Titer Glo was used. Among the eight patients, four had oxaliplatin-sensitive MOS and four had oxaliplatin-resistant MOS (FIG. 1J).

[4] = test system: MOS generated from NSCLC patient samples; experiment: IO assay, Incucyte Annexin V, MOS with tumor-resident immune cells; type: cell-based, human; details: 10 μg/mL, day 4 MOS, 30 tumor cells per MOS
Experimental: (§2) IO assay and Incucyte live cell imaging: MOS generated from primary tumor tissue were plated into 96-well plates with a density of 30-50 MOS per well supplied with culture medium without Y compound. Day 3 or day 4 MOS were treated with ESK1*, DP47 or Nivolumab for at least 3 days and imaged in Incucyte during the treatment. When performing immune cell potency assay, pre-activated PBMCs or matched TILs were stained with Cytolight Rapid red dye following manufacturer instructions. Briefly, Cytolight Rapid Red dye in one vial was diluted with 20 μl DMSO and further diluted 10-fold in PBS. PBMC or TILs were incubated at 37° C. with 5 μl diluted Cytolight Red dye (500X) in PBS for 25 minutes. After one wash with PBS, PBMC or TILs were counted and resuspended into wells containing MOS and culture medium at an effector: target ratio of 5:1 or 10:1. Annexin V green dye, Caspase 3/7 green dye, or Cytotox green dye was added into each well following manufacturer instruction. Plates were loaded into Incucyte S3 and images were taken every 2 hours for 4-5 days.
(§3) MOS generated from NSCLC patient samples at a density of 30 tumor cells per MOS formed tumorsphere-like structures in the presence of tumor-resident immune cells. MOS (day 4) were then treated with anti-PD1 therapy nivolumab at 10 μg/mL and Annexin V was used to evaluate cell apoptosis. […]

[5] = test system: MOS derived from a kidney cancer patient; experiment: IO assay, Incucyte Annexin V, kidney tumor MOS; type: cell-based, human; details: nivolumab alone, day 3 MOS
Experimental: as §2, §3

lung tumor MOS = experiment: IO assay with immunotherapy and MHC block, matched TILs; type: cell-based, human
Experimental: IO assay with immunotherapy and MHC block: Lung tumor MOS were incubated with anti-MHC I/II antibodies (W6/32; Tu39, Cat #361702, Biolegend) at a concentration of 20 μg/mL for 45 minutes at 37° C. before seeding into a 96-well plate at a density of 30-50 MOS per well supplied with lung tumor culture medium without Y-27632. Non-MHC-blocked MOS were used as controls. Matched TILs were added to each well at a 5:1 effector: target ratio. Nivolumab was added to wells at a working concentration of 10 μg/mL. The CD2/CD3/CD28 T cell activator reagent was added at a working concentration of 25 μl/mL. Annexin V was added into each well following the manufacturer's instructions.
Adjunctive therapies were explored by first combining PD-1 blockade (nivolumab) with autologous TILs against matched lung tumor MOS. […] TCB were then combined with autologous TILs or allogeneic PBMCs to treat lung cancer MOS (20 cells per MOS) expressing HLA-A2. ESK1* enhanced both TIL- and PBMC-induced tumor cell death compared to DP47 (FIGS. 11I, 11J, 12J, and 12K). Annexin V signals were higher in MOS treated with ESK1* vs. DP47 in all seven lung cancer samples (FIG. 11K). […] Heterogeneity in drug response between MOS from the same patient was observed and quantified (FIGS. 12K and 12L).

CCc1c2c(nc3ccc(OC(=O)N4CCC(N5CCCCC5)CC4)cc13)-c1cc3c(c(=O)n1C2)COC(=O)[C@]3(O)CC [irinotecan]
% killing [1]: < 50%

O=C1[O][Pt]2([NH][C@@H]3CCCC[C@H]3[NH]2)[O]C1=O [oxaliplatin]
% killing [1]: > 50% | patient tumor response to oxaliplatin-based therapy (metastatic CRC; metastatic rectal cancer patient, 6 months later): still responded | Clinical Outcome (metastatic CRC; patient CRC-MOS-001, oxaliplatin-based therapy): Response | Response Time (metastatic CRC; patient CRC-MOS-001, time on oxaliplatin-based treatment): 46 wks | Clinical Outcome (metastatic CRC; patient CRC-MOS-002, oxaliplatin-based therapy): Response | Response Time (metastatic CRC; patient CRC-MOS-002, time on oxaliplatin-based treatment): 28 wks | Clinical Outcome (metastatic CRC; patient CRC-MOS-003, oxaliplatin-based therapy): Response | Response Time (metastatic CRC; patient CRC-MOS-003, time on oxaliplatin-based treatment): 38 wks | Clinical Outcome (metastatic CRC; patient CRC-MOS-004, oxaliplatin-based therapy): No Response | Response Time (metastatic CRC; patient CRC-MOS-004, time on oxaliplatin-based treatment): 8 wks | Clinical Outcome (metastatic CRC; patient CRC-MOS-005, oxaliplatin-based therapy): Response | Response Time (metastatic CRC; patient CRC-MOS-005, time on oxaliplatin-based treatment): 36 wks | Clinical Outcome (metastatic CRC; patient CRC-MOS-006, oxaliplatin-based therapy): No Response | Response Time (metastatic CRC; patient CRC-MOS-006, time on oxaliplatin-based treatment): 3 wks | Clinical Outcome (metastatic CRC; patient CRC-MOS-007, oxaliplatin-based therapy): No Response | Response Time (metastatic CRC; patient CRC-MOS-007, time on oxaliplatin-based treatment): 24 wks | Clinical Outcome (metastatic CRC; patient CRC-MOS-008, oxaliplatin-based therapy): No Response | Response Time (metastatic CRC; patient CRC-MOS-008, time on oxaliplatin-based treatment): 6 wks | cell killing, Caspase 3/7 signal normalized by cell surface area [2]: only the highest dosages induced significant cell killing | MOS Prediction ([3]; patient CRC-MOS-001): Sensitive | MOS Prediction ([3]; patient CRC-MOS-002): Resistance | MOS Prediction ([3]; patient CRC-MOS-003): Sensitive | MOS Prediction ([3]; patient CRC-MOS-004): Resistance | MOS Prediction ([3]; patient CRC-MOS-005): Sensitive | MOS Prediction ([3]; patient CRC-MOS-006): Resistance | MOS Prediction ([3]; patient CRC-MOS-007): Sensitive | MOS Prediction ([3]; patient CRC-MOS-008): Resistance

nivolumab
death of tumorspheres within MOS (Annexin V) [4]: induced death in the tumorspheres | killing of tumorspheres inside MOS (Annexin V) [5]: did not enhance killing | TIL-mediated killing inside MOS (Annexin V) (lung tumor MOS; 10 μg/mL with autologous TILs, effector:target 5:1): enhanced TIL-mediated killing | TIL-mediated killing inside MOS (Annexin V) with MHC block (lung tumor MOS; anti-MHC I/II antibodies 20 μg/mL, autologous TILs): abrogated
